# Reference: publication PMC11106165, “Repurposing the KCa3.1 Blocker Senicapoc for Ischemic Stroke” (Translational Stroke Research, 2023)
# Assays:
# [1] = Plasma protein binding by rapid equilibrium dialysis; type: in vitro ADME; conditions: mouse plasma, triplicate
# Description: (§1) In order to determine whether senicapoc sufficiently engages its target, additional mice were subjected to 60 min of MCAO, treated with 40 mg/kg senicapoc IP 12 h after reperfusion and then sacrificed 1 h, 4 h, and 12 h later. Mice were deeply anesthetized with isoflurane, and blood was collected from the vena cava into EDTA tubes, and then transcardially perfused with 30 mL of saline. The brain was removed, and the forebrain divided into ipsi- and contralateral side. Brain and plasma samples were stored at − 80 °C pending analysis and then prepared and analyzed as previously described using a Waters Acquity UPLC (Waters, NY) equipped with a Acquity UPLC BEH 1.7 μm C-18 column interfaced to a TSQ Quantum Access Max mass spectrometer (Thermo Fisher Scientific, MA). Senicapoc was analyzed by the selective reaction monitoring transition of its molecular ion peak 324.09 (M + 1) into 228.07, 200.07, 183.11, and 122.18 m/z. An 8-point calibration curve ranging from 50 nM to 10 μM was used for quantification. Senicapoc plasma protein binding was determined with mouse plasma or mouse brain extract in triplicate using rapid equilibrium devices with a molecular weight cutoff of 8 kD (RED, Fisher Scientific).
# [2] = Brain tissue extract binding by rapid equilibrium dialysis; type: in vitro ADME; conditions: mouse brain extract, triplicate
# Description: as §1
# [3] = test system: male C57BL/6 J mice, tMCAO; assay: tMCAO in mice, 14-point tactile and proprioceptive limb-placing score; type: in vivo, mouse; conditions: for maximum neurological score reached: vehicle maximum 5; for average neurological score (14-point): started 12 h, day 8, vehicle average 3
# Description: Reversible focal cerebral ischemia was induced by occlusion of the left middle cerebral artery (MCA) according to the classic filament method of Zea Longa as previously described for mice by our laboratory. All surgeries were performed in the MicroSurgery Core of the UC Davis School of Medicine by a microsurgeon with 20 years of surgical experience using a silicone rubber-coated nylon monofilament with a tip diameter of 0.21 ± 0.02 mm (No. 702112PK5Re, Doccol Corporation). Anesthesia was induced with 5% isoflurane and then maintained with 0.5 to 1.5% isoflurane in medical pure oxygen administered through a facemask. To assure consistent and continuous reduction of cerebral blood flow (CBF), a laser Doppler (Moor Instruments: MOORVMS-LDF) probe adapter was affixed to the surface of the skull over the brain area supplied by the MCA using dental cement. The probe remained in place throughout the MCAO surgery and CBF was measured continuously to confirm occlusion and later establishment of reperfusion. Animals were kept under anesthesia and body temperature was monitored throughout the whole procedure and maintained at > 36.5 °C using a feedback-controlled heating pad. Following 60 min of MCAO, the filament was withdrawn to allow reperfusion. Blood flow measurements were continued for another 15 min before removing the adapter and the laser Doppler probe. Animals received subcutaneous Buprenex at 0.02 mg/kg every 12 h to limit post-surgical pain for 24 h after surgery. The survival rate was 93%. […] In this study, out of the animals surviving to day 8 (45 out of 48), two animals were excluded because they lacked an obvious neurological deficit score at 12 h. Animals that met inclusion criteria were assigned to the 3 groups (low- and high-dose senicapoc or vehicle) based on a computer-generated randomization scheme. Six sham animals, where the filament was placed into the external carotid artery but not advanced, were used as controls for the qPCR experiments.
# Starting at 12 h after tMCAO, and following the first neurological scoring, animals received either the vehicle, Miglyol 812 neutral oil (Medium chain triglycerides, Spectrum Chemicals), a low dose of senicapoc at 10 mg/kg, or a high dose of senicapoc at 40 mg/kg via intraperitoneal (IP) injection. Mice then received the same dosage of senicapoc (or vehicle) IP every 12 h for a total of 14 doses. In the experiment in Fig. 7, drug administration was started 3 h after reperfusion. Senicapoc was synthesized in our laboratory as described. Chemical identity and purity (> 98%) were tested by ^1H and ^13C-NMR and HPLC.
# Since filament MCAO induces infarction in both the striatum and the cortex, we used the 14-point score tactile and proprioceptive limp-placing test to evaluate mice every 24 h. […] The scoring was performed as previously described in detail. The investigator performing the scoring was blinded to the treatment groups.
smiles,measurement,setting,value
NC(=O)C(c1ccccc1)(c1ccc(F)cc1)c1ccc(F)cc1 [senicapoc],binding to plasma protein,[1],96.8 ± 0.5%
same,binding to brain tissue extract,[2],98.1 ± 0.5%
same,maximum neurological score reached,[3]; 10 mg/kg low-dose group,9
same,average neurological score (14-point),[3]; 10 mg/kg,7
same,maximum neurological score reached,[3]; 40 mg/kg high-dose group,10
same,sensorimotor coordination (neurological deficit score),[3]; 40 mg/kg started 3 h after tMCAO,improved on both day 3 and day 8
same,average neurological score (14-point),[3]; 40 mg/kg,9
